Experimental data published in ChEMBL document CHEMBL1201862, “PubChem BioAssay data set” (2004).
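1) Cells in 96-well plates. 2) Compound, 48 h, 5 concentrations. 3) Linear interpolation between surrounding doses. 4) Unreached endpoint = highest concentration. GI50 is the concentration that inhibits growth by half.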 Calls of active or inactive are those of the source. Cut-off read from the data, not from the text of the source: active = GI50 up to about 1.1 µM and inactive = higher.

Experiments:
Assay in all cases: DTP human tumour cell line panel, 48 h
U-251 = test system: U-251
NCI-H226 = test system: NCI-H226
SK-MEL-28 = test system: SK-MEL-28
LOX IMVI = test system: LOX IMVI
MOLT-4 = test system: MOLT-4
KM12 = test system: KM12
OVCAR-8 = test system: OVCAR-8
HCT-15 = test system: HCT-15
ACHN = test system: ACHN
A549 = test system: A549
SF-268 = test system: SF-268
CAKI-1 = test system: CAKI-1
HOP-92 = test system: HOP-92
NCI-H522 = test system: NCI-H522
SNB-75 = test system: SNB-75
K562 = test system: K562
MDA-MB-231 = test system: MDA-MB-231
MDA-N = test system: MDA-N
MDA-MB-435 = test system: MDA-MB-435
DU-145 = test system: DU-145

Row | SMILES | GI50 (U-251) | GI50 (NCI-H226) | GI50 (SK-MEL-28) | GI50 (LOX IMVI) | GI50 (MOLT-4) | GI50 (KM12) | GI50 (OVCAR-8) | GI50 (HCT-15) [µM] | GI50 (ACHN) | GI50 (A549) | GI50 (SF-268) | GI50 (CAKI-1) | GI50 (HOP-92) | GI50 (NCI-H522) | GI50 (SNB-75) | GI50 (K562) | GI50 (MDA-MB-231) | GI50 (MDA-N) | GI50 (MDA-MB-435) | GI50 (DU-145)
1 | CC(=O)c1c(O)ccc2c1CC(CC=O)O2 (stereo unspecified) | 83.9 µM (inactive) | > 100 µM (inactive) | > 100 µM (inactive) | 19.9 µM (inactive) | > 100 µM (inactive) | > 100 µM (inactive) | 27.6 µM (inactive) | 52.6 | > 100 µM (inactive) | > 100 µM (inactive) | 88.5 µM (inactive) | > 100 µM (inactive) | 34.3 µM (inactive) | 60.5 µM (inactive) | 42.1 µM (inactive) | > 100 µM (inactive) | – | – | – | –
2 | CC1(C)[C@@H]2CC[C@]1(C)[C@H](OC(=O)/C=C/c1ccccc1)C2 | 17.7 µM (inactive) | 20.8 µM (inactive) | 19 µM (inactive) | 21.3 µM (inactive) | – | 20.8 µM (inactive) | 20.8 µM (inactive) | 17.6 | 18 µM (inactive) | 30.8 µM (inactive) | 17.3 µM (inactive) | 20.2 µM (inactive) | – | 14.6 µM (inactive) | 16.2 µM (inactive) | 19.9 µM (inactive) | 19.3 µM (inactive) | 31.3 µM (inactive) | 26 µM (inactive) | 19.4 µM (inactive)
3 | Cc1ccc(-c2c(N)[n+]([O-])c3ccccc3[n+]2[O-])cc1 | 14.3 µM (inactive) | 17.9 µM (inactive) | 6.52 µM (inactive) | 11 µM (inactive) | 45.2 µM (inactive) | 11.9 µM (inactive) | 23.4 µM (inactive) | 3.42 | 15.4 µM (inactive) | 23.3 µM (inactive) | 16.9 µM (inactive) | 3.81 µM (inactive) | > 100 µM (inactive) | 1.55 µM (inactive) | 12.2 µM (inactive) | 15 µM (inactive) | – | – | – | –
4 | N#C/C(=C\c1ccc(O)c(O)c1)C(N)=S [TYRPHOSTIN 47] | 70.5 µM (inactive) | > 100 µM (inactive) | > 84.7 µM (inactive) | > 88.9 µM (inactive) | 32.7 µM (inactive) | 68.2 µM (inactive) | > 100 µM (inactive) | 53.5 | > 100 µM (inactive) | > 100 µM (inactive) | 66.1 µM (inactive) | > 100 µM (inactive) | > 58.3 µM (inactive) | 16.2 µM (inactive) | 7.36 µM (inactive) | 22.5 µM (inactive) | – | – | – | –
5 | CCCCCCCC(=O)N1C2CC3CCC2(CS1(=O)=O)C3(C)C (stereo unspecified) | 31.3 µM (inactive) | – | 14.4 µM (inactive) | – | 17.3 µM (inactive) | 26.2 µM (inactive) | 34.1 µM (inactive) | 13.1 | 42.1 µM (inactive) | 27 µM (inactive) | 35.4 µM (inactive) | 20.2 µM (inactive) | 20.6 µM (inactive) | 19.4 µM (inactive) | 24.7 µM (inactive) | – | – | 26.8 µM (inactive) | 31.4 µM (inactive) | 36.6 µM (inactive)
6 | C/C(CC(=O)Nc1ccc(NC(=O)C/C(C)=N\NC(N)=O)cc1)=N/NC(N)=O | > 78 µM (inactive) | > 100 µM (inactive) | > 44.4 µM (inactive) | > 42.5 µM (inactive) | 47.2 µM (inactive) | > 100 µM (inactive) | > 100 µM (inactive) | > 42.3 | 99.8 µM (inactive) | > 100 µM (inactive) | > 60 µM (inactive) | > 100 µM (inactive) | 71.1 µM (inactive) | > 51.5 µM (inactive) | > 93.5 µM (inactive) | 52.7 µM (inactive) | – | – | – | –
7 | CC1C(C)(C)C23CC12C1(OCCO1)C3Br (stereo unspecified) | > 100 µM (inactive) | > 100 µM (inactive) | > 100 µM (inactive) | > 100 µM (inactive) | > 100 µM (inactive) | > 100 µM (inactive) | > 100 µM (inactive) | > 100 | > 100 µM (inactive) | > 100 µM (inactive) | > 100 µM (inactive) | > 100 µM (inactive) | – | – | > 100 µM (inactive) | > 100 µM (inactive) | > 100 µM (inactive) | > 100 µM (inactive) | > 100 µM (inactive) | > 100 µM (inactive)
8 | Cn1c(=O)cc(Nc2ccc(N)cc2)[nH]c1=O | > 100 µM (inactive) | > 100 µM (inactive) | > 100 µM (inactive) | > 100 µM (inactive) | > 100 µM (inactive) | > 100 µM (inactive) | > 100 µM (inactive) | > 100 | > 100 µM (inactive) | > 100 µM (inactive) | > 100 µM (inactive) | > 100 µM (inactive) | > 100 µM (inactive) | > 100 µM (inactive) | > 100 µM (inactive) | > 100 µM (inactive) | > 100 µM (inactive) | > 100 µM (inactive) | > 100 µM (inactive) | –
9 | COC(=O)[C@H](Cc1ccccc1)NC(=O)N1CCCN(C(=O)N[C@@H](Cc2ccccc2)C(=O)OC)CCCN(C(=O)N[C@@H](Cc2ccccc2)C(=O)OC)CCC1 | 16.7 µM (inactive) | 16.5 µM (inactive) | 19.4 µM (inactive) | 15.3 µM (inactive) | 17.7 µM (inactive) | 28.9 µM (inactive) | 20.7 µM (inactive) | 27.8 | 17.1 µM (inactive) | 27.9 µM (inactive) | 17.5 µM (inactive) | 25.5 µM (inactive) | 16 µM (inactive) | 18.9 µM (inactive) | 16.1 µM (inactive) | 61.1 µM (inactive) | – | 26.1 µM (inactive) | 20.6 µM (inactive) | 18.4 µM (inactive)
10 | CCOC(OCC)N1C(=O)C2(C(OCC)OCC)CC3C(OC(=O)N3N)c3cccc1c32 (stereo unspecified) | > 100 µM (inactive) | > 100 µM (inactive) | > 100 µM (inactive) | > 100 µM (inactive) | 79.4 µM (inactive) | > 100 µM (inactive) | > 100 µM (inactive) | > 100 | > 100 µM (inactive) | > 100 µM (inactive) | > 100 µM (inactive) | > 100 µM (inactive) | – | – | – | > 10 µM (inactive) | > 100 µM (inactive) | > 100 µM (inactive) | > 100 µM (inactive) | > 100 µM (inactive)
11 | O=[N+]([O-])C1C2C=CC(C2)[C@H]1c1ccccc1Cl (stereo partly specified) | > 87.9 µM (inactive) | 15.8 µM (inactive) | > 68.7 µM (inactive) | > 100 µM (inactive) | 57 µM (inactive) | > 100 µM (inactive) | > 100 µM (inactive) | > 96.6 | > 83.6 µM (inactive) | > 84.5 µM (inactive) | > 100 µM (inactive) | > 10 µM (inactive) | 24 µM (inactive) | 23.8 µM (inactive) | 20.5 µM (inactive) | 59.4 µM (inactive) | – | – | – | –
12 | NCCSSCc1ccccc1CSSCCN | > 100 µM (inactive) | > 100 µM (inactive) | > 100 µM (inactive) | 14 µM (inactive) | 30.5 µM (inactive) | > 100 µM (inactive) | 66.2 µM (inactive) | 38.5 | 8.65 µM (inactive) | > 100 µM (inactive) | > 100 µM (inactive) | > 100 µM (inactive) | > 100 µM (inactive) | 14.1 µM (inactive) | > 100 µM (inactive) | 16.4 µM (inactive) | – | – | – | –
13 | O=C(O)c1ccc(Cc2ccccc2C(=O)O)cc1 | > 100 µM (inactive) | > 100 µM (inactive) | > 100 µM (inactive) | > 100 µM (inactive) | – | > 100 µM (inactive) | > 100 µM (inactive) | > 100 | > 100 µM (inactive) | > 100 µM (inactive) | > 100 µM (inactive) | > 100 µM (inactive) | > 100 µM (inactive) | > 100 µM (inactive) | 49.5 µM (inactive) | > 100 µM (inactive) | > 100 µM (inactive) | > 100 µM (inactive) | > 100 µM (inactive) | –
14 | Nc1ccc2ncc(Nc3ccc(Cl)c(Cl)c3)nc2c1 | 33.7 µM (inactive) | 20.8 µM (inactive) | 26.5 µM (inactive) | 21.6 µM (inactive) | 17.7 µM (inactive) | 25.9 µM (inactive) | 25.5 µM (inactive) | 34 | 16.9 µM (inactive) | 26.3 µM (inactive) | 39.7 µM (inactive) | 23.4 µM (inactive) | 13.6 µM (inactive) | 17.9 µM (inactive) | 16 µM (inactive) | 18.1 µM (inactive) | – | – | – | –
15 | CCOC(=O)C1(c2ccccc2)CCC(=O)CC1 | > 100 µM (inactive) | > 100 µM (inactive) | > 100 µM (inactive) | > 100 µM (inactive) | > 100 µM (inactive) | > 100 µM (inactive) | > 100 µM (inactive) | > 100 | > 100 µM (inactive) | > 100 µM (inactive) | > 100 µM (inactive) | > 100 µM (inactive) | > 100 µM (inactive) | > 100 µM (inactive) | > 100 µM (inactive) | > 100 µM (inactive) | – | – | – | –
16 | c1ccc(-c2sc(-c3ccccc3)c3c2C(c2ccccc2)c2c(-c4ccccc4)sc(-c4ccccc4)c2C3c2ccccc2)cc1 (stereo unspecified) | > 100 µM (inactive) | > 100 µM (inactive) | > 100 µM (inactive) | > 100 µM (inactive) | – | > 100 µM (inactive) | > 100 µM (inactive) | > 100 | > 100 µM (inactive) | > 100 µM (inactive) | > 100 µM (inactive) | > 100 µM (inactive) | > 100 µM (inactive) | > 100 µM (inactive) | > 100 µM (inactive) | > 100 µM (inactive) | – | – | – | –
17 | CC(=O)c1cc(CC2Cc3cc4c(cc3C2=O)CCC4)cc2c1CCC2 (stereo unspecified) | 33.7 µM (inactive) | 44.9 µM (inactive) | > 100 µM (inactive) | 24 µM (inactive) | 18.5 µM (inactive) | 37.2 µM (inactive) | 46.8 µM (inactive) | 44.1 | 92.7 µM (inactive) | 29.8 µM (inactive) | 83.9 µM (inactive) | 90.2 µM (inactive) | – | 36.9 µM (inactive) | 33.3 µM (inactive) | 12.5 µM (inactive) | 29.7 µM (inactive) | – | 32.2 µM (inactive) | > 100 µM (inactive)
